Where two headings read alike, the source gives them in different places.
Key:
[1] = molecular target: T1, PDE2A (Homo sapiens, UniProt O00408); assay: Radioactive PDE2 assay ([3H]cAMP SPA); format: biochemical
Experimental: a) Radioactive PDE2 Assay Protocol:
PDE 2A protein is expressed upon baculovirus infection in SF9 cells. The cells have been incubated upon infection for ˜3 days and protein production was confirmed by Western Blot. The cells were collected by centrifugation and the pellet frozen in liquid nitrogen before it was resuspended in PBS containing 1% Triton X-100 and protease inhibitors.
Into a 384 well plate (OptiPlate, white), the following components are pipetted (either manually or using automated pipetting devices):
20 μl test-compound solution (test compound diluted in assay buffer at twofold the desired concentration)
+10 μl PDE 2A preparation (enzyme diluted in assay buffer to a concentration of 0.5 ng/μl protein)
+10 μl [^3H]cAMP (diluted in assay buffer to a concentration of 80 nM cAMP)
positive control: no inhibitor, DMSO at the concentration as used in the compound dilutions
negative control: no PDE 2 (SF9 lysate instead of SF9/PDE 2A lysate)
Calculation of % Inhibition:
The activity of the positive control (minus the negative control=background) is set to 100% and activity in the presence of compound is expressed relative to these 100%.
IC50 are calculated with GraphPadPrism or other suited software setting the positive control as 100 and the negative control as 0. For calculation of IC50 usually 11 dilutions of the test compound are selected.

[2] = molecular target: T1, PDE2A; assay: PDE 2A assay with fluorescent substrate (IMAP, fluorescence polarization); format: biochemical; conditions: read-out: PDE2 IC50
Description: c) Phosphodiesterase (PDE) 2A and 10 Assay with Fluorescent Substrate
The PDE reaction cleaves cAMP to AMP. The IMAP system (Molecular Device) using fluorescence polarization (FP) as detection principle was used to measure enzyme activity. A fluorescent labeled cAMP was used as substrate for the reaction, generating a labeled AMP. The fluorescent AMP binds specifically to the large M(III)-based nano-particles which reduces the rotational speed of the substrate and thus increases its polarization.
The inhibition of PDE 2A or 10 enzyme activity was assessed using IMAP-Phosphodiesterase-cAMP fluorescence labeled substrate (Molecular Devices, Order No. R7506), IMAP TR-FRET screening express (Molecular Devices, Order No. R8160, the TR-FRET component will not be used) and PDE 2A or PDE10 protein expressed upon baculovirus infection in SF9 cells. The cells were incubated after infection for ˜3 days and protein production was confirmed by Western Blot. The cells were collected by centrifugation and the pellet frozen in liquid nitrogen before it was resuspended in PBS containing 1% Triton X-100 and protease inhibitors.
All reactions were performed in 384 well plates, Perkin Elmer black optiplates and IMAP reaction buffer with 0.1% Tween20 (kit component)
Compounds were serial diluted in DMSO. With an intermediate dilution step with reaction buffer DMSO concentration was reduced to achieve 1% DMSO in the assay reaction. Setup of the assay started with 10 μl enzyme (˜10 ng/well, depending on prep. batch), 5 μl compound, reaction was started by addition of 5 μl labeled cAMP (30 nM, final concentration), immediately mixed for 15 seconds on a Eppendorf mixmate (2000 rpm) followed by an incubation at room temperature for 90 minutes in the dark. Reaction is stopped by adding of 60 μl binding buffer for FP/cAMP (kit component).
Each assay plate contained wells with vehicle controls (1% DMSO) for the measurement of non-inhibited reaction (=100% control) and wells without enzyme as 0% controls.

[3] = molecular target: hERG channel (Homo sapiens, UniProt Q12809); assay: hERG channel assay (whole-cell patch clamp, HEK293 cells transfected with hERG cDNA); format: cell-based; conditions: 35° C.
Description: hERG (Human Ether-à-Go-Go-Related Gene)-Channel Assay
hERG channel inhibition of compounds of the present invention has been investigated as follows:
HEK (human embryonic kidney) 293 cells were stably transfected with hERG cDNA. Cells were superfused with a bath solution containing (mM): NaCl (137), KCl (4.0), MgCl2 (1.0), CaCl2 (1.8), Glucose (10), HEPES (10), pH 7.4 with NaOH. Patch pipettes were made from borosilicate glass tubing using a horizontal puller and filled with pipette solution containing (mM): K-aspartate (130), MgCl2 (5.0), EGTA (5.0), K2ATP (4.0), HEPES (10.0), pH 7.2 with KOH. Resistance of the microelectrodes was in the range between 2 and 5 MΩ.
Stimulation and Recording:
Membrane currents were recorded using an EPC-10 patch clamp amplifier and PatchMaster software. hERG-mediated membrane currents were recorded at 35° C., using the whole-cell configuration of the patch-clamp technique. Transfected HEK293 cells were clamped at a holding potential of −60 mV and hERG-mediated inactivating tail currents were elicited using a pulse pattern with fixed amplitudes (activation/inactivation: 40 mV for 2000 ms; recovery: […]; ramp to 40 mV in 2 ms; inactivating tail current: 40 mV for 50 ms) repeated at 15 s intervals. During each inter-pulse interval 4 pulses scaled down by a factor of 0.2 were recorded for a P/n leak subtraction procedure. […] compensation was employed up to a level that safely allowed recording devoid of ringing.
Compound Preparation and Application:
The different concentrations of the test compound were applied sequentially on each of the different cells investigated. A steady state level of baseline current was measured for at least 6 sweeps prior to the application of the first test compound concentration.
The test compound was dissolved in DMSO to yield a master stock solution which was diluted further in DMSO to stock solutions needed for the lower concentrations. Final dilutions in extracellular buffer were prepared freshly from these stocks by a 1:1000 dilution step each before starting the experiments.
Data analysis and IC50 determination:
Peak current amplitudes were measured 3 ms after the ramp to +40 mV. For baseline and each concentration the peak currents of the three last sweeps before application of the next concentration were averaged. Residual currents ( 1/10) were calculated for each cell as the fraction of actual average peak current and average baseline peak current.
The logistic concentration-response curve of the following form was fitted to the residual current data using a genetic algorithm:
C: actual concentration of compound (in μM) IC50: half-inhibitory concentration (in μM) p: Hill slope

[4] = molecular target: PDE10 (Homo sapiens, UniProt Q9Y233); assay: PDE10 assay with fluorescent substrate (IMAP, fluorescence polarization); format: biochemical
[5] = Animal experiments and sample analysis: plasma, brain and CSF concentration; format: in vivo; conditions: rat; for concentration at 2 h / Kp at 2 h: 2 h between administration and CSF sampling; for concentration at 2 h / concentration at 0.5 h: doses of 10.0 or 5 μmol/kg; for concentration at 0.5 h: 0.5 h between administration and CSF sampling
Experimental: Test compounds were administered to animals (rat) different routes at doses of 10.0 or 5 μmol/kg, (both oral and intravenous). After compound administration, the animals were sacrificed in a CO2 chamber and CSF samples were carefully collected by puncture of the cisterna magna. Immediately after CSF sampling, blood was taken by heart puncture and brains were dissected out. Blood was collected in EDTA-coated microvettes and plasma was prepared by centrifugation. Concentration of the test compounds in plasma, CSF or brain homogenate was determined using HPLC-MS-MS.

[6] = Metabolic stability in pooled liver microsomes; format: in vitro ADME; conditions: human liver microsomes, 37° C., 1 mg/mL microsomal protein, test compound 1 μM, NADPH
Experimental: The metabolic stability of the compounds according to the invention has been investigated as follows:
The metabolic degradation of the test compound was assayed at 37° C. with pooled liver microsomes from various species. The final incubation volume of 100 μl per time point contains TRIS buffer pH 7.6 at room temperature (0.1 M), magnesium chloride (5 mM), microsomal protein (1 mg/mL for human and dog, 0.5 mg/mL for other species) and the test compound at a final concentration of 1 μM. Following a short preincubation period at 37° C., the reactions were initiated by addition of betanicotinamide adenine dinucleotide phosphate, reduced form (NADPH, 1 mM), and terminated by transferring an aliquot into solvent after different time points. […] The half-life was determined by the slope of the semi-logarithmic plot of the concentration-time profile.

[7] = brain, read-out: c(brain)/c(plasma)

T1 sequence (O00408 whole entry, species assumed): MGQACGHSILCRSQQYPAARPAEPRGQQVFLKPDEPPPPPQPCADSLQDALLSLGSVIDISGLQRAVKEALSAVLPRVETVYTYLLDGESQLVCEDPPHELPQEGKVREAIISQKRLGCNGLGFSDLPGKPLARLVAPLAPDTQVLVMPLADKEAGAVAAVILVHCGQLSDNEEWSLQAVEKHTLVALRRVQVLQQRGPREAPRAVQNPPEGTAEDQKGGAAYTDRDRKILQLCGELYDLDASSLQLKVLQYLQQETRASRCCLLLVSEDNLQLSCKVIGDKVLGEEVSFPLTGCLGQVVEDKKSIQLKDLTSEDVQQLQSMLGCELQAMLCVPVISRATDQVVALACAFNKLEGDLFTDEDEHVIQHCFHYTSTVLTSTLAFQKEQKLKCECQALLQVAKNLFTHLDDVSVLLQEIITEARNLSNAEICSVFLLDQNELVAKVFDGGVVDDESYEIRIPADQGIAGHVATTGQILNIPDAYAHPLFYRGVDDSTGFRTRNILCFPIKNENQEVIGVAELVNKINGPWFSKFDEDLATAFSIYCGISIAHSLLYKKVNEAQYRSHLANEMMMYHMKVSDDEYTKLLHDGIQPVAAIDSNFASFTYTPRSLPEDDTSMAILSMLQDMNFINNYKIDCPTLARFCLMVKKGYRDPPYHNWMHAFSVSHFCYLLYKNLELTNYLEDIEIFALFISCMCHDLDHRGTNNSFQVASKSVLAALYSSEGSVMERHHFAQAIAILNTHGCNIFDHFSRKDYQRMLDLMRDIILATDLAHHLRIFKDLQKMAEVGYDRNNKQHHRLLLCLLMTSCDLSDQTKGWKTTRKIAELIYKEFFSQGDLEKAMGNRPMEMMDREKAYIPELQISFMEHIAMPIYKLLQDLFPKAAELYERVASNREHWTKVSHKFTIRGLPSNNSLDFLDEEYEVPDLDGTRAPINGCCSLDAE
Sequence of hERG channel (Q12809 whole entry): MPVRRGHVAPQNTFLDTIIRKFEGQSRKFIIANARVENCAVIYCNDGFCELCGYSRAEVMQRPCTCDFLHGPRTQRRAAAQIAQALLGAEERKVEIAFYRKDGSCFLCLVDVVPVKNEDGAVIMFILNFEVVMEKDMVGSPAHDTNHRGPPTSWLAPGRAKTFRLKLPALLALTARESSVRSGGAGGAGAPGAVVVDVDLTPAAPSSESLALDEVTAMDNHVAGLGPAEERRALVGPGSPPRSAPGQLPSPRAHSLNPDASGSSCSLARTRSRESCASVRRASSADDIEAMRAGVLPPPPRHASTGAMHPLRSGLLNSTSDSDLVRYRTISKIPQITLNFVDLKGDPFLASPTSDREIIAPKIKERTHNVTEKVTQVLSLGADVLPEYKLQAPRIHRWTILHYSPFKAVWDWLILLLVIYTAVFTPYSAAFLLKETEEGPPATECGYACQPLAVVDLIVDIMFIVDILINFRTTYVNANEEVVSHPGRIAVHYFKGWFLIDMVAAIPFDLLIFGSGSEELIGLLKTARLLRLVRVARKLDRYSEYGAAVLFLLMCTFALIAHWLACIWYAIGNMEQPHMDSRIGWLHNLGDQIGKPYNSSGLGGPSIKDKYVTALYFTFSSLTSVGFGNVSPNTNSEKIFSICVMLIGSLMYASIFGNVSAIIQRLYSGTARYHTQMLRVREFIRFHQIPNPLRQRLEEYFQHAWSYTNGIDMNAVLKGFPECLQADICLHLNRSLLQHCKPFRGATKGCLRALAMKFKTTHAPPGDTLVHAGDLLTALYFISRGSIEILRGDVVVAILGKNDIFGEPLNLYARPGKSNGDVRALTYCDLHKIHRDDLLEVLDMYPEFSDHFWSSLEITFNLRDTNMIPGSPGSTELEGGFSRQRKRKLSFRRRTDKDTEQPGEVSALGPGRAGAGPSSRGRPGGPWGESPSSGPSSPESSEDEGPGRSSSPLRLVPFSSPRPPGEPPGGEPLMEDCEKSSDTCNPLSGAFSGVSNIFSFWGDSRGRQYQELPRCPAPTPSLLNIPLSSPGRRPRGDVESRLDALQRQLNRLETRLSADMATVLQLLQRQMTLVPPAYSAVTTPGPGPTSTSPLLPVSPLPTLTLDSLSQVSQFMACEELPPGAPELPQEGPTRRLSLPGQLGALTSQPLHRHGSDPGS
Sequence of PDE10 (Q9Y233 whole entry, species assumed): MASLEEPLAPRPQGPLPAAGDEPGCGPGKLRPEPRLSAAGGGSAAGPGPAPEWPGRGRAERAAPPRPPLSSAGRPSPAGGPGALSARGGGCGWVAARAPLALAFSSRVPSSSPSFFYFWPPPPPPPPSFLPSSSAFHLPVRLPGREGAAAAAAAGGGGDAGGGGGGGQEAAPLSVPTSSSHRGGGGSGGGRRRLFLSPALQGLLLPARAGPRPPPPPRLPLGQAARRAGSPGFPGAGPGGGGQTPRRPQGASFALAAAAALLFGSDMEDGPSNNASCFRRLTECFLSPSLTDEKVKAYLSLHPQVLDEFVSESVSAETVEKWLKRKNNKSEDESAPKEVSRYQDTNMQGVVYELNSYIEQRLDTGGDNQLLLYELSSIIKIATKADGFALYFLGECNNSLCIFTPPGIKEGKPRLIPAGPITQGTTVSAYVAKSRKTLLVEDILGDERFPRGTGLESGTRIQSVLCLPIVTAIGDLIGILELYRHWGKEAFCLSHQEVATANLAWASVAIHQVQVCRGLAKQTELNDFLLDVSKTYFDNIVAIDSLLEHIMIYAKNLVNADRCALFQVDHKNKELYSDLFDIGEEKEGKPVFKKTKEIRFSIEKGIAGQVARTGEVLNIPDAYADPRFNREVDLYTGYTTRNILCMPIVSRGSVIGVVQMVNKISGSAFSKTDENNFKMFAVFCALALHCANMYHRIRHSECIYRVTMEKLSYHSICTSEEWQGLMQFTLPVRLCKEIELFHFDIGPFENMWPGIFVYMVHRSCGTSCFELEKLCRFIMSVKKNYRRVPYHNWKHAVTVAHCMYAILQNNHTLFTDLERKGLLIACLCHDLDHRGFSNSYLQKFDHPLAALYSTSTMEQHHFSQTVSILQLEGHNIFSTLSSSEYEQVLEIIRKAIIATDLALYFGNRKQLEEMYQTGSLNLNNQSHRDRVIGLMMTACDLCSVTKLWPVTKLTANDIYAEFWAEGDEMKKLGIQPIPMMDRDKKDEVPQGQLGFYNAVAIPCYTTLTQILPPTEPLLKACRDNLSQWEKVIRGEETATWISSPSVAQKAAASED

Compound	IC50 [2] [nM]	IC50 [3] [nM]	IC50 [4] [nM]	Half-life - t½ [6] [h]	other results
Cc1nc2cccnc2n2c(-c3cc(O[C@@H]4CCOC4)ccc3Cl)nnc12 [Example 23]	216	–	–	–	IC50 [1]: 71 nM
Cc1nc2cccnc2n2c(-c3cc(O[C@H]4CCOC4)ccc3Cl)nnc12 [Example 24]	–	–	–	–	IC50 [1]: 138 nM
Cc1nc2ccc(C3CC3)nc2n2c(-c3cc(C4(O)CCC4)ccc3F)nnc12 [Example 84]	6	6300	565	–	–
Cc1ccc2nc(C)c3nnc(-c4cc(OCCO)ccc4Cl)n3c2n1 [Example 28]	–	> 10000	–	–	–
Cc1nc2ccc(C3CC3)nc2n2c(-c3cc(C(C)(C)O)ccc3F)nnc12 [Example 76]	21	> 10000	1100	2.17	concentration at 2 h ([5]; brain, read-out: conc brain): 218 nM; Kp at 2 h [5, 7]: 0.5; concentration at 2 h ([5]; plasma, read-out: conc plasma): 463 nM; concentration at 2 h ([5]; read-out: conc CSF): 18 nM; Kp at 2 h ([5]; read-out: c(CSF)/c(plasma)): 0.04
Cc1nc2cccnc2n2c(-c3cc(C4(O)CCOCC4)ccc3Cl)nnc12 [Example 93]	86	> 10000	6110	2.17	–
Cc1nc2ccc(C3CC3)nc2n2c(-c3cc(CC(C)(C)O)ccc3F)nnc12 [Example 80]	10	> 10000	5410	–	–
Cc1nc2cccnc2n2c(-c3cc(OC[C@H](C)O)ccc3Cl)nnc12 [Example 18]	–	> 10000	–	2.17	concentration at 0.5 h ([5]; brain, read-out: conc brain): 351 nM; concentration at 0.5 h ([5]; plasma, read-out: conc plasma): 1220 nM; concentration at 0.5 h ([5]; read-out: conc CSF): 163 nM
Cc1ccc(C(C)(C)O)cc1-c1nnc2c(C)nc3ccc(C4CC4)nc3n12 [Example 75]	–	> 10000	–	2.17	concentration at 2 h ([5]; brain, read-out: conc brain): 383 nM; Kp at 2 h [5, 7]: 0.34; concentration at 2 h ([5]; plasma, read-out: conc plasma): 1130 nM; concentration at 2 h ([5]; read-out: conc CSF): 31 nM; Kp at 2 h ([5]; read-out: c(CSF)/c(plasma)): 0.03
Cc1nc2ccc(C3CC3)nc2n2c(-c3cc(C4(O)CCC4)ccc3Cl)nnc12 [Example 88]	1	> 10000	–	–	–
Cc1nc2ccc(C3CC3)nc2n2c(-c3cc(CCC(C)(C)O)ccc3F)nnc12 [Example 66]	3	> 10000	674	–	–
Cc1nc2cccnc2n2c(-c3cc(C4(O)CCC4)ccc3Cl)nnc12 [Example 87]	74	> 10000	2590	2.17	–
Cc1nc2cccnc2n2c(-c3cc(OCCO)ccc3Cl)nnc12 [Example 15]	112	–	1120	–	IC50 [1]: 40 nM
Cc1nc2ccc(C3CC3)nc2n2c(-c3cc(OCC(C)(C)O)ccc3F)nnc12 [Example 47]	8	> 10000	852	2.17	concentration at 2 h ([5]; brain, read-out: conc brain): 441 nM; Kp at 2 h [5, 7]: 0.7; concentration at 2 h ([5]; plasma, read-out: conc plasma): 622 nM; concentration at 2 h ([5]; read-out: conc CSF): 22 nM; Kp at 2 h ([5]; read-out: c(CSF)/c(plasma)): 0.04
Cc1ccc(OCC(C)(C)O)cc1-c1nnc2c(C)nc3ccc(C4CC4)nc3n12 [Example 48]	8	> 10000	–	2.17	–
Cc1ccc2nc(C)c3nnc(-c4cc(OC5CCOCC5)ccc4Cl)n3c2n1 [Example 32]	–	> 10000	–	2.17	–
Cc1ccc2nc(C)c3nnc(-c4cc(OCCCOC(F)(F)F)ccc4Cl)n3c2n1 [Example 33]	5	–	–	–	IC50 [1]: 4 nM
Cc1nc2ccc(C3CC3)nc2n2c(-c3cc(OCC(C)(C)O)ccc3Cl)nnc12 [Example 45]	–	> 10000	–	2.17	concentration at 2 h ([5]; brain, read-out: conc brain): 183 nM; concentration at 2 h ([5]; plasma, read-out: conc plasma): 801 nM; concentration at 2 h ([5]; read-out: conc CSF): 25 nM
Cc1ccc(CCC(C)(C)O)cc1-c1nnc2c(C)nc3ccc(C4CC4)nc3n12 [Example 68]	2	8300	1010	–	–
Cc1nc2cccnc2n2c(-c3cc(OC4CCOC4)ccc3Cl)nnc12 (stereo not drawn) [Example 22]	207	–	–	–	IC50 [1]: 115 nM
Cc1nc2cccnc2n2c(-c3cc(CCC(C)(C)O)ccc3Cl)nnc12 [Example 64]	45	> 10000	3870	2.17	concentration at 2 h ([5]; brain, read-out: conc brain): 254 nM; Kp at 2 h [5, 7]: 0.5; concentration at 2 h ([5]; plasma, read-out: conc plasma): 783 nM; concentration at 2 h ([5]; read-out: conc CSF): 37 nM; Kp at 2 h ([5]; read-out: c(CSF)/c(plasma)): 0.06
Cc1nc2ccc(C3CC3)nc2n2c(-c3cc(C(C)(C)O)ccc3Cl)nnc12 [Example 85]	6	> 10000	4320	2.17	–
Cc1nc2cccnc2n2c(-c3cc(OC4CCC(O)C4)ccc3Cl)nnc12 (stereo not drawn) [Example 40]	77	–	–	–	IC50 [1]: 80 nM
Cc1nc2cccnc2n2c(-c3cc(OC4COCC4O)ccc3Cl)nnc12 (racemic) [Example 55]	–	> 10000	–	2.17	–
Cc1nc2ccc(C3CC3)nc2n2c(-c3cc(OC4CCOCC4)ccc3Cl)nnc12 [Example 32a]	–	> 10000	7390	–	–
Cc1nc2ccc(C3CC3)nc2n2c(-c3cc(CC(C)(C)O)ccc3Cl)nnc12 [Example 83]	4	> 10000	8820	–	–
Cc1nc2cccnc2n2c(-c3cc(CC(C)(C)O)ccc3Cl)nnc12 [Example 82]	199	> 10000	5620	2.17	–
Cc1nc2cccnc2n2c(-c3cc(OCC4(O)CCC4)ccc3Cl)nnc12 [Example 49]	33	> 10000	3760	2.17	concentration at 2 h ([5]; brain, read-out: conc brain): 47 nM; Kp at 2 h [5, 7]: 0.2; concentration at 2 h ([5]; plasma, read-out: conc plasma): 239 nM; concentration at 2 h ([5]; read-out: conc CSF): 13 nM; Kp at 2 h ([5]; read-out: c(CSF)/c(plasma)): 0.06
